Laboratory results reported in ChEMBL document CHEMBL1240392 (Antimicrob Agents Chemother, 2010).
In brackets after ≈: the same amount, converted by molar mass. Activity calls are given as the source filed them. No cut-off for these calls is given here.

How the values were obtained:
[1] = Half life in C57BL/6 mouse pneumonia model at 60 mg/kg, im; format: ADME, organism-based; design: dose 60 mg/kg, route intramuscular; conditions: in vivo
[2] = T>MIC in Acinetobacter baumannii infected New Zealand rabbit meningitis model at 30 mg/kg, im; format: functional; conditions: route intramuscular
[3] = Ratio of AUC to MIC for Acinetobacter baumannii 1327 in pharmacokinetic-pharmacodynamic New Zealand rabbit meningitis model at 30 mg/kg, im; format: functional; conditions: route intramuscular
[4] = tested on: Acinetobacter baumannii; experiment: Antimicrobial activity against Acinetobacter baumannii 1327; format: functional
[5] = Ratio of AUC to MIC for Acinetobacter baumannii 1327 in pharmacokinetic-pharmacodynamic C57BL/6 mouse pneumonia model at 60 mg/kg, im; format: functional; conditions: route intramuscular
[6] = tested on: Acinetobacter baumannii; experiment: Antimicrobial activity against Acinetobacter baumannii 940; format: functional
[7] = Cmax in New Zealand rabbit meningitis model at 30 mg/kg, im; format: ADME, organism-based, Oryctolagus cuniculus; design: dose 30 mg/kg, route intramuscular; conditions: in vivo
[8] = tested on: Acinetobacter baumannii; experiment: Antimicrobial activity against Acinetobacter baumannii 506 after 24 hrs by time-kill assay; format: functional, organism-based
[9] = tested on: Acinetobacter baumannii; experiment: Antimicrobial activity against Acinetobacter baumannii 940 after 24 hrs by time-kill assay; format: functional, organism-based
[10] = tested on: Acinetobacter baumannii; experiment: Antimicrobial activity against Acinetobacter baumannii 1327 after 24 hrs by time-kill assay; format: functional, organism-based
[11] = Cmax in C57BL/6 mouse pneumonia model at 60 mg/kg, im; format: ADME, organism-based; design: dose 60 mg/kg, route intramuscular; conditions: in vivo
[12] = T>MIC in Acinetobacter baumannii infected C57BL/6 mouse pneumonia model at 60 mg/kg, im; format: functional; conditions: route intramuscular
[13] = AUC in New Zealand rabbit meningitis model at 30 mg/kg, im; format: ADME, organism-based, Oryctolagus cuniculus; design: dose 30 mg/kg, route intramuscular; conditions: in vivo
[14] = tested on: Acinetobacter baumannii; experiment: Antimicrobial activity against Acinetobacter baumannii infected in C57BL/6 mouse model assessed as reduction in bacterial count per gram of lung at total dose of 240 mg/kg/day, im administered as four divided doses after 72 hrs (RVb = 10.6+/-0.27); format: functional, organism-based
[15] = tested on: Acinetobacter baumannii; experiment: Antimicrobial activity against Acinetobacter baumannii 1417 after 24 hrs by time-kill assay; format: functional, organism-based
[16] = tested on: Acinetobacter baumannii; experiment: Antimicrobial activity against Acinetobacter baumannii 506; format: functional
[17] = AUC in C57BL/6 mouse pneumonia model at 60 mg/kg, im; format: ADME, organism-based; design: dose 60 mg/kg, route intramuscular; conditions: in vivo
[18] = Half life in New Zealand rabbit meningitis model at 30 mg/kg, im; format: ADME, organism-based, Oryctolagus cuniculus; design: dose 30 mg/kg, route intramuscular; conditions: in vivo
[19] = Ratio of Cmax to MIC for Acinetobacter baumannii 1327 in pharmacokinetic-pharmacodynamic C57BL/6 mouse pneumonia model at 60 mg/kg, im; format: functional; conditions: route intramuscular
[20] = tested on: Acinetobacter baumannii; experiment: Antibacterial activity against Acinetobacter baumannii infected in C57BL/6 mouse model assessed as survival rate at total dose of 240 mg/kg/day, im administered as four divided doses measured after 72 hrs post last dose relative to control; format: functional; conditions: route intramuscular
[21] = tested on: Acinetobacter baumannii; experiment: Antimicrobial activity against Acinetobacter baumannii infected in C57BL/6 mouse model assessed as reduction in bacterial count in blood at total dose of 240 mg/kg/day, im administered as four divided doses after 72 hrs; format: functional; design: scale not given: the % may be the effect or the level left; conditions: route intramuscular
[22] = Ratio of Cmax to MIC for Acinetobacter baumannii 1327 in pharmacokinetic-pharmacodynamic New Zealand rabbit meningitis model at 30 mg/kg, im; format: functional; conditions: route intramuscular
[23] = tested on: Acinetobacter baumannii; experiment: Antimicrobial activity against Acinetobacter baumannii 1417; format: functional
[24] = tested on: Mus musculus; experiment: AUC in C57BL/6 mouse pneumonia model at 20 mg/kg, im; format: ADME, organism-based; design: dose 20 mg/kg, route intramuscular; conditions: in vivo
[25] = tested on: Oryctolagus cuniculus; experiment: Cmax in New Zealand rabbit meningitis model at 12 mg/kg, im; format: ADME, organism-based; design: dose 12 mg/kg, route intramuscular; conditions: in vivo
[26] = tested on: Mus musculus; experiment: Cmax in C57BL/6 mouse pneumonia model at 20 mg/kg, im; format: ADME, organism-based; design: dose 20 mg/kg, route intramuscular; conditions: in vivo
[27] = tested on: Oryctolagus cuniculus; experiment: Half life in New Zealand rabbit meningitis model at 12 mg/kg, im; format: ADME, organism-based; design: dose 12 mg/kg, route intramuscular; conditions: in vivo
[28] = tested on: Mus musculus; experiment: Half life in C57BL/6 mouse pneumonia model at 20 mg/kg, im; format: ADME, organism-based; design: dose 20 mg/kg, route intramuscular; conditions: in vivo
[29] = tested on: Oryctolagus cuniculus; experiment: AUC in New Zealand rabbit meningitis model at 12 mg/kg, im; format: ADME, organism-based; design: dose 12 mg/kg, route intramuscular; conditions: in vivo
[30] = species: Homo sapiens; experiment: AUC in human; format: ADME, organism-based, Plasma; conditions: in vivo
[31] = T>MIC in Acinetobacter baumannii infected C57BL/6 mouse pneumonia model at 20 mg/kg, im; format: functional, organism-based; design: dose 20 mg/kg
[32] = tested on: Acinetobacter baumannii; experiment: Antimicrobial activity against Acinetobacter baumannii infected in C57BL/6 mouse model assessed as reduction in bacterial count in blood at total dose of 60 mg/kg/day, im administered as four divided doses after 72 hrs; format: functional, organism-based; design: scale not given: the % may be the effect or the level left
[33] = tested on: Acinetobacter baumannii; experiment: Antimicrobial activity against Acinetobacter baumannii; format: functional, organism-based
[34] = T>MIC in Acinetobacter baumannii infected New Zealand rabbit meningitis model at 12 mg/kg, im; format: functional, organism-based; design: dose 12 mg/kg
[35] = tested on: Oryctolagus cuniculus; experiment: Antiinflammatory activity in Acinetobacter baumannii 1327-infected New Zealand rabbit meningitis model assessed as brain edema at 12 mg/kg, im; format: functional, organism-based; design: dose 12 mg/kg
[36] = Ratio of AUC to MIC for Acinetobacter baumannii 1327 in pharmacokinetic-pharmacodynamic New Zealand rabbit meningitis model at 12 mg/kg, im; format: functional, organism-based; design: dose 12 mg/kg
[37] = tested on: Acinetobacter baumannii; experiment: Antibacterial activity against Acinetobacter baumannii 1327 infected in New Zealand rabbit meningitis model assessed as reduction in bacterial count in CSF at 25 mg/kg, im measured after 2 hrs of last dose (RVb = […]); format: functional, organism-based; design: dose 25 mg/kg
[38] = tested on: Oryctolagus cuniculus; experiment: Antiinflammatory activity in Acinetobacter baumannii 1327-infected New Zealand rabbit meningitis model assessed as in WBC count at 12 mg/kg, im after 6 hrs (RVb = 1 cells/ul); format: functional, organism-based; design: dose 12 mg/kg
[39] = tested on: Acinetobacter baumannii; experiment: Antibacterial activity against Acinetobacter baumannii 1327 infected in New Zealand rabbit meningitis model assessed as reduction in bacterial count in CSF at 25 mg/kg, im measured after 4 hrs of last dose (RVb = 5.2); format: functional, organism-based; design: dose 25 mg/kg
[40] = tested on: Acinetobacter baumannii; experiment: Antibacterial activity against Acinetobacter baumannii 1327 infected in New Zealand rabbit meningitis model assessed as reduction in bacterial count in CSF at 25 mg/kg, im measured after 6 hrs of last dose (RVb = 5.5); format: functional, organism-based; design: dose 25 mg/kg
[41] = Ratio of AUC to MIC for Acinetobacter baumannii 1327 in pharmacokinetic-pharmacodynamic C57BL/6 mouse pneumonia model at 12 mg/kg, im; format: functional, organism-based; design: dose 12 mg/kg
[42] = tested on: Acinetobacter baumannii; experiment: Antimicrobial activity against Acinetobacter baumannii infected in C57BL/6 mouse model assessed as reduction in bacterial count per gram of lung at total dose of 60 mg/kg/day, im administered as four divided doses after 72 hrs (RVb = 10.6+/-0.27); format: functional, organism-based
[43] = Ratio of Cmax to MIC for Acinetobacter baumannii 1327 in pharmacokinetic-pharmacodynamic New Zealand rabbit meningitis model at 12 mg/kg, im; format: functional, organism-based; design: dose 12 mg/kg
[44] = Ratio of Cmax to MIC for Acinetobacter baumannii 1327 in pharmacokinetic-pharmacodynamic C57BL/6 mouse pneumonia model at 20 mg/kg, im; format: functional, organism-based; design: dose 20 mg/kg
[45] = tested on: Acinetobacter baumannii; experiment: Antibacterial activity against Acinetobacter baumannii infected in C57BL/6 mouse model assessed as survival rate at total dose of 60 mg/kg/day, im administered as four divided doses measured after 72 hrs post last dose relative to control; format: functional, organism-based

CC1(C)[C@H](C(=O)O)N2C(=O)C[C@H]2S1(=O)=O [SULBACTAM]
half-life [1]: 21 min
T>MIC [2]: 0.84 h
Ratio [3]: 1.78
MBC [4]: 32 µg/mL (≈ 137 µM)
MIC [4]: 32 µg/mL (≈ 137 µM)
Ratio [5]: 2.73
MBC [6]: 32 µg/mL (≈ 137 µM)
MIC [6]: 32 µg/mL (≈ 137 µM)
Cmax [7]: 75.3 µg/mL
Activity [8]: Active
Activity [9]: Active
Activity [10]: Active
Cmax [11]: 89.5 µg/mL
T>MIC [12]: 1.29 h
AUC [13]: 57100 ng·h/mL
Activity [14]: Active
Activity [15]: Active
MBC [16]: 32 µg/mL (≈ 137 µM)
MIC [16]: 32 µg/mL (≈ 137 µM)
AUC [17]: 87500 ng·h/mL
half-life [18]: 32.4 min
Ratio [19]: 2.8
survival at 240 mg/kg/day [20]: 40%
Activity [21]: 33.3%
Ratio [22]: 2.35
MBC [23]: 32 µg/mL (≈ 137 µM)
MIC [23]: 32 µg/mL (≈ 137 µM)

COLISTIN [listing 1 of 2 here]
AUC [24]: 26420 ng·h/mL
Cmax [25]: 9 µg/mL
Cmax [26]: 27.39 µg/mL
t1/2 [27]: 185 min
t1/2 [28]: 32.4 min
AUC [29]: 41720 ng·h/mL
AUC [30]: 23430 ng·h/mL

COLISTIN [listing 2 of 2 here]
T>MIC [31]: 3.72 h
Activity [32]: 73.3%
MBC [4]: 2 µg/mL
MIC [4]: 0.5 µg/mL
MIC [33]: 0.5 µg/mL
T>MIC [34]: 11.4 h
Activity [35]: 383 µL⁻¹
MBC [6]: 8 µg/mL
MIC [6]: 0.5 µg/mL
Activity [8]: Active
Activity [9]: Active
Ratio [36]: 83.4
Activity [10]: Active
Activity [37]: 5.2 log10CFU/ml
Activity [38]: 4%
Activity [39]: 4.7 log10CFU/ml
Activity [15]: Active
MBC [16]: 2 µg/mL
MIC [16]: 0.5 µg/mL
Activity [40]: 4.3 log10CFU/ml
Ratio [41]: 52.8
Activity [42]: Active
Ratio [43]: 18
MBC [23]: 1 µg/mL
MIC [23]: 0.5 µg/mL
Ratio [44]: 54.8
Survival [45]: 40%
